Measurements reported in paper PMC10573175 (International Journal of Molecular Sciences, 2023).
Values belong to the compound of their own block, whether it stands above or below them.

Assays:
[1] = molecular target: T1, human serum albumin (HSA) (Homo sapiens, UniProt P02768); assay: Effect of paracetamol on HSA–ceftazidime binding (fluorescence quenching, Lineweaver–Burk analysis); conditions: for KSV: 25 °C
Method: (§1) UV-visible studies were performed on a Perkin Elmer Lambda 45 spectrophotometer (Germany) within the range of 200 nm to 500 nm as required. Intrinsic fluorescence measurements were performed on a Hitachi F 7000 spectrofluorometer (Japan) equipped with the programmable temperature controller. The excitation and emission slit widths were adjusted to 5 nm with a PMT voltage of 500 V. Circular dichroism (CD) spectrophotometric recordings were obtained with a Jasco J-815 spectropolarimeter (Japan) using a quartz cuvette of […]. The studies were carried out in the 20 mM tris buffer of pH 7.4 and at 25 °C unless stated otherwise. Autodock 4.2 [36] was used to perform molecular docking and MD simulations were performed through GROMACS 2021.3 [37] with the utilization of the CHARMM force field for a production run of 100 ns. The detailed methodology is given in the Supplementary Materials.

[2] = molecular target: T1, human serum albumin (HSA); assay: Intrinsic fluorescence quenching of HSA by ceftazidime (Stern–Volmer, modified Stern–Volmer, Van't Hoff analysis); assay type: binding; conditions: for KSV (Stern–Volmer quenching constant): 20 mM tris buffer pH 7.4, excitation 295 nm; for ΔG (free energy change of binding): Van't Hoff
Excerpt: The intrinsic fluorescence of HSA is mainly contributed by a single tryptophan residue, which can be excited at 295 nm to give the maximum fluorescence emission at 340 nm. […] The corrected fluorescence data are used to further analyze the results given in the next section.
The fluorescence quenching is the result of either stable complex formation between fluorophore and the quencher or there is a collisional encounter between them. The first phenomenon is termed as static quenching, while the second one is known as dynamic quenching. […] The involvement of the quenching mechanism, either static or dynamic, can be understood with the help of temperature variation. Dynamic quenching increases in increasing the temperature while static quenching constant decreases in such a case.
The binding constant (Kb) and number of binding sites (n) can also be estimated using the modified Stern–Volmer equation as:(2) logF0−F/F=logKb+nlog[Q].
Van’t Hoff equations (given in Equations (S2) and (S3)) can be used to evaluate the thermodynamic parameters such as the free energy change (ΔG), enthalpy change (ΔH), and entropy change (ΔS) of a process using the values of physical parameters at equilibrium. Herein, we used the binding constant, Kb, at three different temperatures to fit into the Equation (S1) to obtain the values of ΔH from the slope and ΔS from the intercept of the plot of ln Kb vs. 1/T (Figure 5A), which are given in Table 1. The values of ΔH and ΔS were, further, used to calculate ΔG. From the evaluation of thermodynamic parameters, involvement of the major forces in the binding can be understood along with the feasibility of the interaction. According a to report published by Ross and Subramanian, hydrogen bonding interactions dominate when the values of ΔH and ΔS are negative, whereas positive values of these parameters can be observed in case of hydrophobic interactions.
as §1, with “Materials. […]” for “Materials.”

[3] = molecular target: T1, human serum albumin (HSA); assay: Competitive binding site assay with site markers warfarin, ibuprofen and hemin (fluorescence quenching); conditions: for KSV: 25 °C
Excerpt: DS1 is located in subdomain IIA, while DS2 is located in subdomain IIIA. There are several molecules that have the specific affinities towards these binding sites; for instance, warfarin binds strongly at DS1 and ibuprofen binds at DS2 [12]. There is another binding site within HSA, which is also known as fatty acid binding site 1, located in subdomain IB, which has a precise affinity for hemin [12]. Therefore, these molecules could be considered as the specific site markers for these sites and can be used to see the competitive binding between the molecule under consideration. […] The corresponding quenching and binding plots are given in Figure 7A,B and the calculated values of quenching and binding constants are shown in Table 2. […] To obtain more understanding on the binding site, we performed computational studies using molecular docking and molecular dynamics simulations, which will be described in the next sub-sections.
as §1

HSA = HSA (Homo sapiens, UniProt P02768); assay: Far-UV circular dichroism spectroscopy of HSA with ceftazidime; conditions: far-UV CD, dependent on drug concentration
Method: as §1
Non-steroidal anti-inflammatory drug effect on the binding of p lasma […]
on Perkin-Elmer Lambda 45 Spectrophotometer equipped with autosampler and water-
bath with temperature controller. Quartz cuvettes of 1 cm path length were used for the
Fluorescence measurements were performed on Hitachi spectrofluorometer (Model […]
fluorescence spectra were collected at 25 °C with a cell of path length 1 cm. […]
and emission slits were set at 5 nm. Intrinsic fluorescence was measured by exciting […]

[4] = Van't Hoff plot of ln Kb vs. 1/T, 25–45 °C

T1 sequence (P02768 25-609): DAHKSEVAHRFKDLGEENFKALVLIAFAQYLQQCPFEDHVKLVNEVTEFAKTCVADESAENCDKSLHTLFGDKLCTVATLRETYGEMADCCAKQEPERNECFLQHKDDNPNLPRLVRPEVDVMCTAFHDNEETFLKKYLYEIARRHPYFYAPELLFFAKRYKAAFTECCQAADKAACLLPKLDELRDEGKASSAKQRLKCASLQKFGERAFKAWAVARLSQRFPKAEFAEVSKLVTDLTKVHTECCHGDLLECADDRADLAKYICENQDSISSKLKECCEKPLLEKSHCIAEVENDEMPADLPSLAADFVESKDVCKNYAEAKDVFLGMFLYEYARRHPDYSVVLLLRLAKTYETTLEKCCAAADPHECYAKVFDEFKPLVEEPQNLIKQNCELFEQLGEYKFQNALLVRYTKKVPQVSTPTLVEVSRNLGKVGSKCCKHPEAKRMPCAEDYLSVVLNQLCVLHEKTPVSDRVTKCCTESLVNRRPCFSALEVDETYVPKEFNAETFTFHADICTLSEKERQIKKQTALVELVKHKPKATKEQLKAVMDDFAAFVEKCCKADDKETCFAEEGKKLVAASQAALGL
Chain of HSA (P02768 25-609): as above

- type of inhibition of HSA–ceftazidime binding ([1]; Lineweaver–Burk plots): non-competitive
SMILES: CC(=O)Nc1ccc(O)cc1 [Paracetamol, paracetamol]

- n (number of binding sites) ([2]; 25 °C): 0.96
- KSV (Stern–Volmer quenching constant) ([2]; 25 °C): 2.3 × 10^3 M^–1
- ΔG (free energy change of binding) ([2]; 25 °C): -18.4 kJ/mol
- n (number of binding sites) ([2]; 35 °C): 1.01
- KSV (Stern–Volmer quenching constant) ([2]; 35 °C): 2.6 × 10^3 M^–1
- ΔG (free energy change of binding) ([2]; 35 °C): -20.7 kJ/mol
- n (number of binding sites) ([2]; 45 °C): 1.09
- KSV (Stern–Volmer quenching constant) ([2]; 45 °C): 3.2 × 10^3 M^–1
- ΔG (free energy change of binding) ([2]; 45 °C): -23.0 kJ/mol
- quenching mechanism ([2]; KSV increased on increasing the temperature): dynamic quenching mechanism
- ΔH (enthalpy change of binding) [2, 4]: 49.5 kJ/mol
- ΔS (entropy change of binding) [2, 4]: 227.8 J mol^−1 K^−1
- KSV ([3]; in the presence of hemin (site marker subdomain IB)): 1.3 × 10^3 M^–1
- KSV ([3]; in the presence of ibuprofen (site marker DS2)): 2.3 × 10^3 M^–1
- KSV ([3]; in the presence of warfarin (site marker DS1)): 1.7 × 10^3 M^–1
- preferred binding site within HSA ([3]; site markers and docking): subdomain IB
- KSV ([1]; in the presence of 50 µM paracetamol): 2.2 × 10^3 M^–1
- KSV ([1]; in the presence of 100 µM paracetamol): 1.8 × 10^3 M^–1
- KSV ([1]; in the presence of 150 µM paracetamol): 1.7 × 10^3 M^–1
- KSV ([1]; in the presence of 250 µM paracetamol): 1.6 × 10^3 M^–1
- KSV ([1]; in the presence of 500 µM paracetamol): 1.3 × 10^3 M^–1
- effect on secondary structure of HSA (HSA): partial unfolding of the protein
SMILES: CC(C)(O/N=C(\C(=O)N[C@@H]1C(=O)N2C(C(=O)[O-])=C(C[n+]3ccccc3)CS[C@H]12)c1csc(N)n1)C(=O)O [Ceftazidime]
